According to ChEMBL document CHEMBL6153102, “Rational Design, Synthesis, and Biological Evaluation of Novel c-Met Degraders for Lung Cancer Therapy” (J Med Chem, 2025):
The source made the active and inactive calls. The calls are words filed in the database; no cut-off is given here.

Tests used:
[1] = target: T1, Protein cereblon/Hepatocyte growth factor receptor (Homo sapiens, UniProt P08581+Q96SW2); experiment: PROTAC activity at c-Met/CRBN in human EBC-1 cells assessed as reduction in c-Met level at 3.9 to 125 nM incubated for 24 hrs in presence of lenalidomide by Western blot analysis; format: cell-based; conditions: dose 3.9-125 nM
Target sequence in this assay (P08581 25-1390 limits assumed): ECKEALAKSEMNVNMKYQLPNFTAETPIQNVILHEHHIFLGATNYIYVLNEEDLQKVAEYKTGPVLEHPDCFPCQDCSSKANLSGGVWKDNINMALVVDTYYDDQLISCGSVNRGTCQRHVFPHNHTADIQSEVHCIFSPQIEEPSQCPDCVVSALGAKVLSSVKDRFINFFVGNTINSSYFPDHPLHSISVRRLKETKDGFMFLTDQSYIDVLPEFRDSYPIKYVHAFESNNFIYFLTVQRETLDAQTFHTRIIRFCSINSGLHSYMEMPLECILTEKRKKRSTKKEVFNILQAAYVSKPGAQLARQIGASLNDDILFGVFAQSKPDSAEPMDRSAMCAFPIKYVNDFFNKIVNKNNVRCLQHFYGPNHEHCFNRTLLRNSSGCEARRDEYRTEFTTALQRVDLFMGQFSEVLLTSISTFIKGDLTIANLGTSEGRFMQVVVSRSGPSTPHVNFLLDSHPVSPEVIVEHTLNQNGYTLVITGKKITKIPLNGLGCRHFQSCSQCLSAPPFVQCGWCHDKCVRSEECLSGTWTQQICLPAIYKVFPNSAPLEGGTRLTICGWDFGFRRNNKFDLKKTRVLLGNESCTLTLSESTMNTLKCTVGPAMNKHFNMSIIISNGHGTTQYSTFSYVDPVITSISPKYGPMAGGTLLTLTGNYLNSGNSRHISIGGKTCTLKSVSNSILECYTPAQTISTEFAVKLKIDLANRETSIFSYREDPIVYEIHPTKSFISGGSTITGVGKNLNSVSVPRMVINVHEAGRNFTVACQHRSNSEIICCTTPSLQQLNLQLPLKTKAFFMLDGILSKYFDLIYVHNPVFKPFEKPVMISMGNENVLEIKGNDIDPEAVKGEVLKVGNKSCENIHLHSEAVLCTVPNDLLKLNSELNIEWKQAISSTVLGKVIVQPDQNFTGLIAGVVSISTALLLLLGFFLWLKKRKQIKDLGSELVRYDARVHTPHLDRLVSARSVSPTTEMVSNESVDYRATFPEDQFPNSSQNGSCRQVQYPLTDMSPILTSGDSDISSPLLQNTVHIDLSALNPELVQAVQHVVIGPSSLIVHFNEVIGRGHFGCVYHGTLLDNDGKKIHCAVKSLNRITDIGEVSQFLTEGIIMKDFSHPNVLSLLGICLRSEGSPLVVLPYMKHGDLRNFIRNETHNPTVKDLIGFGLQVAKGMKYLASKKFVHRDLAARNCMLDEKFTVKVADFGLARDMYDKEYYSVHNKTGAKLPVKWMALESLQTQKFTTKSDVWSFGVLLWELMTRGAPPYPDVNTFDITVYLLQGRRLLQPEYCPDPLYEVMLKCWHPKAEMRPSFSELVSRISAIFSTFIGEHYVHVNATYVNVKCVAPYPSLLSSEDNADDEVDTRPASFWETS
Target sequence in this assay (Q96SW2 whole entry partner): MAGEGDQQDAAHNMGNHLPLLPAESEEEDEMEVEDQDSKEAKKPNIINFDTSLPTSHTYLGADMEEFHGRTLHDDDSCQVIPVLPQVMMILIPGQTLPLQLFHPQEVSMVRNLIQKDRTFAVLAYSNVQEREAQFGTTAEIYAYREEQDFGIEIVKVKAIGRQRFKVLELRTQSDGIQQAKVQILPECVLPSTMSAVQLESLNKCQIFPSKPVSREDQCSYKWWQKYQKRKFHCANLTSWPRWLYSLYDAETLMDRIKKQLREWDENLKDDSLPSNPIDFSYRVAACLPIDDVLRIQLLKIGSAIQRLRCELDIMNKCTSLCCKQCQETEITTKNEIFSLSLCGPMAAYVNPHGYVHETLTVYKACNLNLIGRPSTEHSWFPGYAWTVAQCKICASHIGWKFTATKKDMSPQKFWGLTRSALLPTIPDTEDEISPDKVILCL

[2] = target: T1, Protein cereblon/Hepatocyte growth factor receptor; experiment: PROTAC activity at c-Met/CRBN in human EBC-1 cells assessed as reduction in c-Met level at 3.9 to 125 nM incubated for 24 hrs in presence of MG132 by Western blot analysis; format: cell-based; conditions: dose 3.9-125 nM
Target sequence in this assay (P08581 25-1390 limits assumed): as the sequence (P08581 25-1390 limits assumed) above
Target sequence in this assay (Q96SW2 whole entry partner): as the sequence (Q96SW2 whole entry partner) above

[3] = target: T1, Protein cereblon/Hepatocyte growth factor receptor; experiment: PROTAC activity at c-Met/CRBN in human EBC-1 cells assessed as reduction in c-Met mRNA level at 3.9 to 125 nM incubated for 24 hrs by qPCR analysis; format: cell-based; conditions: dose 3.9-125 nM
Target sequence in this assay (P08581 25-1390 limits assumed): as the sequence (P08581 25-1390 limits assumed) above
Target sequence in this assay (Q96SW2 whole entry partner): as the sequence (Q96SW2 whole entry partner) above

[4] = target: T1, Protein cereblon/Hepatocyte growth factor receptor; experiment: PROTAC activity at c-Met/CRBN in human EBC-1 cells assessed as effect on IKZF2 level at 15.6 nM incubated for 24 hrs by proteomics analysis; format: cell-based
Target sequence in this assay (P08581 25-1390 limits assumed): as the sequence (P08581 25-1390 limits assumed) above
Target sequence in this assay (Q96SW2 whole entry partner): as the sequence (Q96SW2 whole entry partner) above

[5] = target: T1, Protein cereblon/Hepatocyte growth factor receptor; experiment: PROTAC activity at c-Met/CRBN in human EBC-1 cells assessed as reduction in UHRF1 level at 15.6 nM incubated for 24 hrs by proteomics analysis; format: cell-based
Target sequence in this assay (P08581 25-1390 limits assumed): as the sequence (P08581 25-1390 limits assumed) above
Target sequence in this assay (Q96SW2 whole entry partner): as the sequence (Q96SW2 whole entry partner) above

[6] = target: T1, Protein cereblon/Hepatocyte growth factor receptor; experiment: PROTAC activity at c-Met/CRBN in human EBC-1 cells assessed as reduction in AKR1C3 level at 15.6 nM incubated for 24 hrs by proteomics analysis; format: cell-based
Target sequence in this assay (P08581 25-1390 limits assumed): as the sequence (P08581 25-1390 limits assumed) above
Target sequence in this assay (Q96SW2 whole entry partner): as the sequence (Q96SW2 whole entry partner) above

[7] = target: T1, Protein cereblon/Hepatocyte growth factor receptor; experiment: PROTAC activity at c-Met/CRBN in human EBC-1 cells assessed as reduction in TFPI2 level at 15.6 nM incubated for 24 hrs by proteomics analysis; format: cell-based
[8] = target: T1, Protein cereblon/Hepatocyte growth factor receptor; experiment: PROTAC activity at c-Met/CRBN in human A549 cells assessed as induction of c-Met degradation at 100 nM incubated for 24 hrs by Western blotting analysis relative to control; format: cell-based
[9] = target: T1, Protein cereblon/Hepatocyte growth factor receptor; experiment: PROTAC activity at c-Met/CRBN in human HCT-116 cells assessed as induction of c-Met degradation at 100 nM incubated for 24 hrs by Western blotting analysis relative to control; format: cell-based
[10] = target: T1, Protein cereblon/Hepatocyte growth factor receptor; experiment: PROTAC activity at c-Met/CRBN in human EBC-1 cells assessed as induction of c-Met degradation incubated for 24 hrs by Western blotting analysis; format: cell-based
[11] = target: T1, Protein cereblon/Hepatocyte growth factor receptor; experiment: PROTAC activity at c-Met/CRBN in human EBC-1 cells assessed as induction of c-Met degradation at 15.6 nM incubated for 24 hrs by Western blotting analysis relative to control; format: cell-based
[12] = target: T1, Protein cereblon/Hepatocyte growth factor receptor; experiment: PROTAC activity at c-Met/CRBN in human EBC-1 cells assessed as induction of c-Met degradation at 15.6 nM incubated for 72 hrs by Western blotting analysis relative to control; format: cell-based
[13] = target: T1, Protein cereblon/Hepatocyte growth factor receptor; experiment: PROTAC activity at c-Met/CRBN in human EBC-1 cells assessed as induction of c-Met degradation at 15.6 nM by Western blotting analysis; format: cell-based; conditions: time 72.0 hrs
[14] = target: T1, Protein cereblon/Hepatocyte growth factor receptor; experiment: PROTAC activity at c-Met/CRBN in human A549 cells assessed as induction of c-Met degradation at 15.6 nM by Western blotting analysis; format: cell-based; conditions: time 72.0 hrs
[15] = tested on: HCT-116; experiment: Antiproliferative activity against human HCT-116 cells assessed as cell viability incubated for 72 hrs by MTT assay; format: functional, cell-based; conditions: HCT-116, 72 h
[16] = tested on: EBC-1; experiment: Induction of apoptosis in human EBC-1 cells assessed as necrotic cells at 5 nM incubated for 24 hrs by Annexin V/FITC staining based flow cytometry analysis (reference value: 0.35 %); format: functional
[17] = tested on: EBC-1; experiment: Induction of apoptosis in human EBC-1 cells assessed as early apoptotic cells at 50 nM incubated for 24 hrs by Annexin V/FITC staining based flow cytometry analysis (reference value: 2.11 %); format: functional
[18] = tested on: EBC-1; experiment: Induction of apoptosis in human EBC-1 cells assessed as necrotic cells at 50 nM incubated for 24 hrs by Annexin V/FITC staining based flow cytometry analysis (reference value: 0.35 %); format: functional
[19] = Stability in rat plasma assessed as half life; format: ADME, cell-free
[20] = Half life in Sprague-Dawley rat at 5 mg/kg, ip measured upto 24 hrs by LC-MS/MS analysis; format: ADME, organism-based; conditions: in vivo
[21] = Tmax in Sprague-Dawley rat at 5 mg/kg, ip measured upto 24 hrs by LC-MS/MS analysis; format: ADME, organism-based; conditions: in vivo
[22] = Cmax in Sprague-Dawley rat at 2 mg/kg, iv measured upto 24 hrs by LC-MS/MS analysis; format: ADME, organism-based; conditions: in vivo
[23] = Cmax in Sprague-Dawley rat at 5 mg/kg, ip measured upto 24 hrs by LC-MS/MS analysis; format: ADME, organism-based; conditions: in vivo
[24] = AUC (0 to t) in Sprague-Dawley rat at 2 mg/kg, iv measured upto 24 hrs by LC-MS/MS analysis; format: ADME, organism-based; conditions: in vivo
[25] = AUC (0 to infinity) in Sprague-Dawley rat at 2 mg/kg, iv measured upto 24 hrs by LC-MS/MS analysis; format: ADME, organism-based; conditions: in vivo
[26] = AUC (0 to infinity) in Sprague-Dawley rat at 5 mg/kg, ip measured upto 24 hrs by LC-MS/MS analysis; format: ADME, organism-based; conditions: in vivo
[27] = Apparent volume of distribution in Sprague-Dawley rat at 2 mg/kg, iv measured upto 24 hrs by LC-MS/MS analysis; format: ADME, organism-based; conditions: in vivo
[28] = MRT (0 to t) in Sprague-Dawley rat at 2 mg/kg, iv measured upto 24 hrs by LC-MS/MS analysis; format: ADME, organism-based; conditions: in vivo
[29] = tested on: EBC-1; experiment: Antitumor activity against human EBC-1 cells xenografted BALB/c nude mouse assessed as reduction in tumor volume at 10 mg/kg, ip administered for 7 days; format: functional; design: scale not given: the % may be the effect or the level left; conditions: time 7 day
[30] = tested on: EBC-1; experiment: Antitumor activity against human EBC-1 cells xenografted BALB/c nude mouse assessed as reduction in tumor volume at 20 mg/kg, ip administered for 7 days; format: functional; design: scale not given: the % may be the effect or the level left; conditions: time 7 day
[31] = Toxicity in BALB/c nude mouse assessed as heart damage at 10 to 20 mg/kg, ip administered for 7 days by H and E staining based analysis; format: organism-based; conditions: in vivo, 168 h, dose 10-20 mg/kg, time 7 day
[32] = Toxicity in BALB/c nude mouse assessed as liver damage at 10 to 20 mg/kg, ip administered for 7 days by H and E staining based analysis; format: organism-based; conditions: in vivo, 168 h, dose 10-20 mg/kg, time 7 day
[33] = Toxicity in BALB/c nude mouse assessed as spleen damage at 10 to 20 mg/kg, ip administered for 7 days by H and E staining based analysis; format: organism-based; conditions: in vivo, 168 h, dose 10-20 mg/kg, time 7 day
[34] = tested on: EBC-1; experiment: Antitumor activity against human EBC-1 cells xenografted BALB/c nude mouse assessed as reduction in Ki67 expression at 10 to 20 mg/kg, ip administered for 7 days by immunohistochemical analysis; format: functional, organism-based; conditions: dose 10-20 mg/kg, time 7.0 day
[35] = tested on: EBC-1; experiment: PROTAC activity at c-Met Y1230C mutant /CRBN in human EBC-1 cells assessed as induction of c-Met degradation up to 1000 nM incubated for 24 hrs by Western blotting analysis; format: cell-based
[36] = tested on: MKN-45; experiment: Antiproliferative activity against human MKN-45 cells assessed as cell viability incubated for 72 hrs by MTT assay; format: functional, cell-based; conditions: MKN-45, 72 h

Structure (SMILES): COc1ccc(C(=O)N2CCC3(CCN(C(=O)CN4CCC(COc5cnc(-c6cccc(Cn7nc(-c8cccc(C#N)c8)ccc7=O)c6)nc5)CC4)CC3)CC2)cc1N1CCC(=O)NC1=O
- Activity [1]: Active
- Activity [2]: Active
- Activity [3]: Active
- Activity [4]: No effect
- Activity [5]: Active
- Activity [6]: Active
- Activity [7]: Active
- Activity [8]: inactive
- Activity [9]: inactive
- DC50 [10]: 0.59 nM
- Activity ([10]; dose 0.03 nM): Dose-dependent-effect
- Emax [11]: 96.1%
- Activity [12]: 93.1%
- Activity [13]: Time-dependent-effect
- Activity [14]: Time-dependent-effect
- IC50 [15]: 6190 nM
- Activity [16]: 0.42%
- Activity [17]: 33.9%
- Activity [18]: 0.6%
- half-life [19]: > 2 h
- half-life [20]: 5.49 h
- Tmax [21]: 2 h
- Cmax [22]: 2380 ng/mL
- Cmax [23]: 104 ng/mL
- AUCt [24]: 532 ng·h/mL
- AUC(0-inf) [25]: 551 ng·h/mL
- AUC(0-inf) [26]: 678 ng·h/mL
- Vz [27]: 13.13 L/kg
- MRT last at 24 h [28]: 2.49 h
- Activity [29]: 86.14%
- Activity [30]: 86.14%
- Activity [31]: Non-toxic
- Activity [32]: Non-toxic
- Activity [33]: Non-toxic
- Activity [34]: inactive
- Activity [35]: Active
- IC50 [36]: 10 nM
